Test results: patent US9593149B2, “Amylin and calcitonin receptor agonist” (Novo Nordisk A/S, priority 2014, dated 2017)
Numbered stars: 1 amine (or outer) side, 2 acyl side, 3 side chain; on linkers, the order of the positions; unused ones are H or OH. Peptide text beside a SMILES is read from it. * marks the point of attachment. C20 diacid = O=C(O)CCCCCCCCCCCCCCCCCCC(=O)*; γGlu = O=C(O)[C@H](CCC(=O)[*:2])N[*:1]

Test: Assay (IV) determination of solubility
Type: physicochemical
Procedure: Assay (IV)—Determination of Solubility
The mimylin peptide was dissolved in water at ˜500 nmol/ml and mixed 1:1 with a series of buffers (100 mM glycylglycine pH 3.0, 100 mM glycylglycine pH 4.0, 100 mM glycylglycine pH 5.0, 100 mM bistrispropane pH 6.0, 100 mM bistrispropane pH 6.5, 100 mM bistrispropane pH 7.0, 100 mM bistrispropane pH 7.5, 100 mM bistrispropane pH 8.0).

Measured: Solubility

CC(C)C[C@H](NC(=O)[C@H](CO)NC(=O)CNC(=O)[C@H](CO)NC(=O)CNC(=O)[C@@H](NC(=O)[C@H](CCC(=O)O)NC(=O)[C@@H](NC(=O)[C@H](CCCNC(=N)N)NC(=O)[C@@H]1CCCN1C(=O)[C@H](CC(C)C)NC(=O)[C@@H](NC(=O)[C@H](C)NC(=O)[C@H](CC(C)C)NC(=O)[C@H](CCC(=O)O)NC(=O)[C@H](Cc1cnc[nH]1)NC(=O)[C@H](CC(C)C)NC(=O)[C@H](CCC(=O)O)NC(=O)[C@H](C)NC(=O)[C@H](CO)NC(=O)[C@H](CC(C)C)NC(=O)[C@H](CCCNC(=N)N)NC(=O)CNC(=O)[C@H](CC(C)C)NC(=O)[C@H](C)NC(=O)[C@H](C)NC(=O)[C@@H](NC(=O)[C@H](CO)NC(=O)[C@H](CC(C)C)NC(=O)[C@H](CCC(=O)O)NC(=O)[C@H](CO)NC(=O)[C@H](C)NC(=O)CC[C@H](NC(=O)CCCCCCCCCCCCCCCCCCC(=O)O)C(=O)O)[C@@H](C)O)[C@@H](C)O)[C@@H](C)O)[C@@H](C)O)C(N)=O [compound 62, [N-terminal(C20 diacid-gGlu), des1, 30S, 31G, 33L]mimylin] ({C20 diacid-γGlu}-ASELSTAALGRLSAELHELATLPRTETGSGSL-NH2)
≧200 μM: pH 3.0 | pH 4.0 | pH 5.0 | pH 6.0 | pH 6.5 | pH 7.0 | pH 7.5 | pH 8.0

CC(C)C[C@H](NC(=O)[C@H](C)NC(=O)[C@H](C)NC(=O)[C@@H](NC(=O)[C@H](CO)NC(=O)[C@H](CC(C)C)NC(=O)[C@H](CCC(=O)O)NC(=O)[C@H](CO)NC(=O)[C@H](C)NC(=O)CC[C@H](NC(=O)CCCCCCCCCCCCCCCCCCC(=O)O)C(=O)O)[C@@H](C)O)C(=O)NCC(=O)N[C@@H](CCCNC(=N)N)C(=O)N[C@@H](CC(C)C)C(=O)N[C@@H](CO)C(=O)N[C@@H](C)C(=O)N[C@@H](CCC(=O)O)C(=O)N[C@@H](CC(C)C)C(=O)N[C@@H](Cc1cnc[nH]1)C(=O)N[C@@H](CCC(=O)O)C(=O)N[C@@H](CC(C)C)C(=O)N[C@@H](C)C(=O)N[C@H](C(=O)N[C@@H](CC(C)C)C(=O)N1CCC[C@H]1C(=O)N[C@@H](CCCNC(=N)N)C(=O)N[C@H](C(=O)N[C@@H](CCC(=O)O)C(=O)N[C@H](C(=O)NCC(=O)N[C@@H](CO)C(=O)NCC(=O)N[C@@H](CO)C(=O)N[C@@H](CO)C(N)=O)[C@@H](C)O)[C@@H](C)O)[C@@H](C)O [compound 63, [N-terminal(C20 diacid-gGlu), des1, 30S, 31G, 33S]mimylin] ({C20 diacid-γGlu}-ASELSTAALGRLSAELHELATLPRTETGSGSS-NH2)
≧200 μM: pH 3.0 | pH 4.0 | pH 5.0 | pH 6.0 | pH 6.5 | pH 7.0 | pH 7.5 | pH 8.0

CC(C)C[C@H](NC(=O)[C@H](C)NC(=O)[C@H](C)NC(=O)[C@@H](NC(=O)[C@H](CO)NC(=O)[C@H](CC(C)C)NC(=O)[C@H](CCC(=O)O)NC(=O)[C@H](CO)NC(=O)[C@H](C)NC(=O)CC[C@H](NC(=O)CCCCCCCCCCCCCCCCCCC(=O)O)C(=O)O)[C@@H](C)O)C(=O)NCC(=O)N[C@@H](CCCNC(=N)N)C(=O)N[C@@H](CC(C)C)C(=O)N[C@@H](CO)C(=O)N[C@@H](C)C(=O)N[C@@H](CCC(=O)O)C(=O)N[C@@H](CC(C)C)C(=O)N[C@@H](Cc1cnc[nH]1)C(=O)N[C@@H](CCC(=O)O)C(=O)N[C@@H](CC(C)C)C(=O)N[C@@H](C)C(=O)N[C@H](C(=O)N[C@@H](CC(C)C)C(=O)N1CCC[C@H]1C(=O)N[C@@H](CCCNC(=N)N)C(=O)N[C@H](C(=O)N[C@@H](CCC(=O)O)C(=O)N[C@H](C(=O)NCC(=O)N[C@@H](CO)C(=O)NCC(=O)N[C@@H](CO)C(=O)NCC(N)=O)[C@@H](C)O)[C@@H](C)O)[C@@H](C)O [compound 64, [N-terminal(C20 diacid-gGlu), des1, 30S, 31G, 33G]mimylin] ({C20 diacid-γGlu}-ASELSTAALGRLSAELHELATLPRTETGSGSG-NH2)
≧200 μM: pH 3.0 | pH 4.0 | pH 5.0 | pH 6.0 | pH 6.5 | pH 7.0 | pH 7.5 | pH 8.0

CC(C)C[C@H](NC(=O)[C@H](C)NC(=O)[C@H](C)NC(=O)[C@@H](NC(=O)[C@H](CO)NC(=O)[C@H](CC(C)C)NC(=O)[C@H](CCC(=O)O)NC(=O)[C@H](CO)NC(=O)[C@H](C)NC(=O)CC[C@H](NC(=O)CCCCCCCCCCCCCCCCCCC(=O)O)C(=O)O)[C@@H](C)O)C(=O)NCC(=O)N[C@@H](CCCNC(=N)N)C(=O)N[C@@H](CC(C)C)C(=O)N[C@@H](CO)C(=O)N[C@@H](C)C(=O)N[C@@H](CCC(=O)O)C(=O)N[C@@H](CC(C)C)C(=O)N[C@@H](Cc1cnc[nH]1)C(=O)N[C@@H](CCC(=O)O)C(=O)N[C@@H](CC(C)C)C(=O)N[C@@H](C)C(=O)N[C@H](C(=O)N[C@@H](CC(C)C)C(=O)N1CCC[C@H]1C(=O)N[C@@H](CCCNC(=N)N)C(=O)N[C@H](C(=O)N[C@@H](CCC(=O)O)C(=O)N[C@H](C(=O)NCC(=O)N[C@@H](CO)C(=O)NCC(=O)N[C@@H](CO)C(=O)N[C@@H](C)C(N)=O)[C@@H](C)O)[C@@H](C)O)[C@@H](C)O [compound 65, [N-terminal(C20 diacid-gGlu), des1, 30S, 31G, 33A]mimylin] ({C20 diacid-γGlu}-ASELSTAALGRLSAELHELATLPRTETGSGSA-NH2)
≧200 μM: pH 3.0 | pH 4.0 | pH 5.0 | pH 6.0 | pH 6.5 | pH 7.0 | pH 7.5 | pH 8.0

CC(C)C[C@H](NC(=O)[C@H](C)NC(=O)[C@H](C)NC(=O)[C@@H](NC(=O)[C@H](CO)NC(=O)[C@H](CC(C)C)NC(=O)[C@H](CCC(=O)O)NC(=O)[C@H](CO)NC(=O)[C@H](C)NC(=O)CC[C@H](NC(=O)CCCCCCCCCCCCCCCCCCC(=O)O)C(=O)O)[C@@H](C)O)C(=O)NCC(=O)N[C@@H](CCCNC(=N)N)C(=O)N[C@@H](CC(C)C)C(=O)N[C@@H](CO)C(=O)N[C@@H](CCC(=O)O)C(=O)N[C@@H](CCC(=O)O)C(=O)N[C@@H](CC(C)C)C(=O)N[C@@H](Cc1cnc[nH]1)C(=O)N[C@@H](CCC(=O)O)C(=O)N[C@@H](CC(C)C)C(=O)N[C@@H](C)C(=O)N[C@H](C(=O)N[C@@H](CC(C)C)C(=O)N1CCC[C@H]1C(=O)N[C@@H](CCCNC(=N)N)C(=O)N[C@H](C(=O)N[C@@H](CCC(=O)O)C(=O)N[C@H](C(=O)NCC(=O)N[C@@H](CO)C(=O)NCC(=O)N[C@@H](CO)C(=O)N1CCC[C@H]1C(N)=O)[C@@H](C)O)[C@@H](C)O)[C@@H](C)O [compound 66, [N-terminal(C20 diacid-gGlu), des1, 15E, 30S, 31G]mimylin] ({C20 diacid-γGlu}-ASELSTAALGRLSEELHELATLPRTETGSGSP-NH2)
≧200 μM: pH 3.0 | pH 4.0 | pH 5.0 | pH 6.0 | pH 6.5 | pH 7.0 | pH 7.5 | pH 8.0

CC(C)C[C@H](NC(=O)[C@H](C)NC(=O)[C@H](C)NC(=O)[C@@H](NC(=O)[C@H](CO)NC(=O)[C@H](CC(C)C)NC(=O)[C@H](CCC(=O)O)NC(=O)[C@H](CO)NC(=O)[C@H](C)NC(=O)CC[C@H](NC(=O)CCCCCCCCCCCCCCCCCCC(=O)O)C(=O)O)[C@@H](C)O)C(=O)NCC(=O)N[C@@H](CCCNC(=N)N)C(=O)N[C@@H](CC(C)C)C(=O)N[C@@H](CO)C(=O)N[C@@H](C)C(=O)N[C@@H](CCC(=O)O)C(=O)N[C@@H](CC(C)C)C(=O)N[C@@H](Cc1cnc[nH]1)C(=O)N[C@@H](CCC(=O)O)C(=O)N[C@@H](CC(C)C)C(=O)N[C@@H](C)C(=O)N[C@H](C(=O)N[C@@H](CC(C)C)C(=O)N1CCC[C@H]1C(=O)N[C@@H](Cc1cnc[nH]1)C(=O)N[C@H](C(=O)N[C@@H](CCC(=O)O)C(=O)N[C@H](C(=O)NCC(=O)N[C@@H](CO)C(=O)NCC(=O)N[C@@H](CO)C(=O)N1CCC[C@H]1C(N)=O)[C@@H](C)O)[C@@H](C)O)[C@@H](C)O [compound 73, [N-terminal(C20 diacid-gGlu), des1, 25H, 30S, 31G]mimylin] ({C20 diacid-γGlu}-ASELSTAALGRLSAELHELATLPHTETGSGSP-NH2)
≧200 μM: pH 3.0 | pH 4.0 | pH 5.0 | pH 6.0 | pH 6.5 | pH 7.0 | pH 7.5 | pH 8.0
